These results are taken from patent US11453671B2, “Pyrazolopyrimidine inhibitors of JAK kinases and uses thereof” (Genentech, Inc., priority 2020, dated 2022).

What all share (format): cell-based
In one series the test system is HEK-293T cells. As to the kind of experiment: Cell cytotoxicity assay HEK-293T (CellTiter-Glo, 72 hours). The conditions noted are these: Table 3; 72 hours, top concentration of 50 μM; read-out: Cytotox K-293 EC50. The essentials: (§1)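 HEK-293T or Jurkat E6-1 cells plated at 450 cells/well were treated the next day with a 10-point titration from 50 μM top (0.5% DMSO final). After 72 h at 37° C, viability was read by CellTiter-Glo luminescence.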
A general note: Cellular ATP, detected with luciferase, serves as a proxy for viable cell number.

The test system of another series is Jurkat clone E6-1 cells. The series is described as follows: Cell cytotoxicity assay Jurkat (CellTiter-Glo, 72 hours). The conditions noted are these: Table 3; 72 hours, top concentration of 50 μM; read-out: Cytotox Jurkat EC50. The essentials:
as §1

The next series relates to A549 cells. The series is described as follows: Cell cytotoxicity assay A549 (CellTiter-Glo, 72 hours). The conditions noted are these: Table 3; 72 hours, top concentration of 50 μM; read-out: Cytotox A549 EC50. The essentials:
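A549 cells were plated overnight, then exposed for 72 h at 37 °C to a 10-point compound titration (top 50 μM, 0.5% DMSO final). Viability was read as CellTiter-Glo luminescence after 20 min at room temperature.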

What is called EC50 is the concentration at which the effect is half-maximal.

For the molecule `CC(CO)S(=O)(=O)c1ccc(OC(F)F)c(-c2nn(C)cc2NC(=O)c2cnn3cccnc23)c1` (single isomer, unassigned) [Example 24, N-[3-[2-(difluoromethoxy)-5-(2-hydroxy-1-methyl-ethyl)sulfonyl-phenyl]-1-methyl-pyrazol-4-yl]pyrazolo[1,5-a]pyrimidine-3-carboxamide], the EC50 with HEK-293T cells is 22 µM; with Jurkat clone E6-1 cells, 37 µM; in the series with A549 cells it was not below 50 µM.
